# Measurements: article PMC11434752, “Algerian Prickly Pear Seed By-Products: Fatty Acids Composition, Antioxidant, Enzyme Inhibitory Activities towards Tyrosinase, Urease, α-Amylase, and Cholinesterase, along with the Ability to Protect from Thermal Protein Denaturation” (Pharmaceuticals, 2024)
# Molecular target: urease (Canavalia ensiformis, UniProt P07374)
# Assay: biochemical
# Chain of urease (P07374 whole entry): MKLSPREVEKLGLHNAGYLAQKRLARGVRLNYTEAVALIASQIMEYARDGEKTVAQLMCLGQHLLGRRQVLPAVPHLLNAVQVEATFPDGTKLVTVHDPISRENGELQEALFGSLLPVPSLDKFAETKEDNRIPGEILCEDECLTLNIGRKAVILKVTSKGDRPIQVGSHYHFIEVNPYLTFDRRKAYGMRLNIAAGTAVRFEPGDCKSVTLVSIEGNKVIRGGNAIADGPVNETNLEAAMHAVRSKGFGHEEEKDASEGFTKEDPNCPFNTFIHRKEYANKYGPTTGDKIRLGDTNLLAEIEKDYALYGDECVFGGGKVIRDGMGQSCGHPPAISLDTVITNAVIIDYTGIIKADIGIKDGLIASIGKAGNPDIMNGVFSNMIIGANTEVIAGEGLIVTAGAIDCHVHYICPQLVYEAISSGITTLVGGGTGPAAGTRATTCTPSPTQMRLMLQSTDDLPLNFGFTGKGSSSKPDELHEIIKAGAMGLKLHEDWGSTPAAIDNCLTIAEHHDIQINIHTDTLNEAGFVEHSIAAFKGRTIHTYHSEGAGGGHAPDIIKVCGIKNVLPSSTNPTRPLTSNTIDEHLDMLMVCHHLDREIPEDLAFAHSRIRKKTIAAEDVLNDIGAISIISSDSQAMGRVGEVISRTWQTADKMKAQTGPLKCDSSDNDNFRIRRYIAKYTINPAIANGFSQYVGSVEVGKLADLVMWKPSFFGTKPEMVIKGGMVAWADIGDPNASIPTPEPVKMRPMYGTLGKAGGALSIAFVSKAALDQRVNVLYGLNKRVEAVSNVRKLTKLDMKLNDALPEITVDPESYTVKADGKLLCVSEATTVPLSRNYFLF
smiles,measurement,value
NC(N)=S [Thiourea],IC50,111 µM
